Ten compounds from patent publication US20240376154A1, “BIS-INTERCALATING PEPTIDES, CONJUGATES AND METHODS OF USE” (ZYMEWORKS BC INC., priority 2023, published 2024) can be followed below.

For data set [1], the system named is tumour cells (at least 4 of a panel of ovarian, breast, lung, pancreatic, placenta, colon cell lines). As to the kind of experiment: In vitro cytotoxicity (cell proliferation, CellTiter-Glo), average over tumour cell line panel. Format: cell-based. The following applies: for pIC50 (average): average pIC50 on all cell lines tested, 5 nights incubation, CellTiter-Glo. The procedure, abridged:
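Each cell line seeded at ~1000 cells/well and left to adhere overnight, then given a 10-point 1:3 compound titration for 5 nights at 37° C, 5% CO2. Viability read by CellTiter-Glo luminescence; IC50 per line, reported as pIC50 averaged across at least 4 lines.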
For orientation: Cellular ATP, detected with luciferase, serves as a proxy for viable cell number.

Data set [2] concerns biotinylated hairpin DNA sequence 5'-GCATGCTTTTGCATGC
As to the kind of experiment: DNA binding by surface plasmon resonance (SPR). The following applies: for KD (mM): SPR, 25° C., hairpin DNA. The procedure: Representative compounds prepared as described in Example 2 were assessed in two complementary DNA-binding assays. Increased melting temperature of herring sperm DNA was measured using differential scanning calorimetry (DSC) and binding kinetics were determined by surface plasmon resonance (SPR) using a short DNA hairpin sequence.
SPR experiments were conducted at 25° C. using a Biacore™ T200 instrument and SA-Biotin chip. PBST Buffer: Gibco PBS, pH 7.4 was modified with Tween®20 (0.01%) and DMSO (2%). Immobilization: a short biotinylated hairpin DNA sequence 5′-GCATGCTTTTGCATGC (5′ biotin) (SEQ ID NO: 1) that contains two known sandramycin binding segments (in bold) was heated to 90° C., cooled to RT then immobilized to 700 RU. Bis-intercalating peptides at concentrations of 5, 2.5, 1.25, 0.625, and 0.312 μM in PBST were flowed over the chip at 20 μL/min with an association time of 600 s followed by dissociation for 600 s. Reference cell values were subtracted and binding constants ka, kd, and KD were determined using Biacore™ T200 Evaluation Software, version 3.0.
(In SPR one partner is held on a chip, and binding of the other changes the refractive index at the surface.)

Data set [3] is described as follows: Lipophilicity by experimental HPLC retention time. The following applies: HPLC retention time as measure of lipophilicity; C18, 10 to 90% CH3CN/H2O with 0.1% FA over 25 min. The class given is physicochemical. Put shortly: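 Reversed-phase HPLC with diode array detection on a Kinetex EVO C18 150×4.6, 2.6 μm column. Gradient 10 to 90% CH3CN/H2O with 0.1% FA over 25 min; retention time serves as the lipophilicity measure.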

The subject of data set [4] is IGROV-1 (Ovarian Adenocarcinoma). As to the kind of experiment: Cell proliferation assay, IGROV-1. The following applies: 5 nights. The class given is cell-based. The procedure: (§1) The ability of Compound 419 and Compound 424 to inhibit proliferation of tumour cells in vitro was measured by a cell proliferation assay using the following tumour cell lines: IGROV-1 (Ovarian Adenocarcinoma, NCI), JEG-3 (Placental Choriocarcinoma, AddexBio (C0030003)) and OVKATE (Ovarian Adenocarcinoma, Japanese Collection of Research Bioresources (JCRB) (JCRB1044)).
(§2) Cell lines were cultured as per vendor instructions prior to running the cell proliferation assay. Briefly, on the day prior to adding compound, cells (50 μL/well, 1000 cells/well) were added to sterile, tissue culture (TC)-treated, 384-well plates (ThermoFisher Scientific, Catalogue #164610) and incubated overnight at 37° C./5% CO2 to allow the cells to adhere to the plate surface. The next day, in a sterile, V-bottom, 96-well plate, compounds were titrated 1:3 in complete growth medium, creating a 10-point dose response titration with compounds at 3.5-times the desired final concentration. Control wells with no compound (growth medium only) were included for each compound titration in 96-well dilution plates. 20 uL from the 10-point dose response titration were added to the 384-well plate containing the seeded cells, in duplicate. Plates were incubated at 37° C./5% CO2 for 5 nights. After 5-night incubation, cell viability was quantified by the addition of 15 uL/well of CellTiter-Glo® (Promega, Catalogue #G7572) and incubation at room temperature for 30 minutes. After 30-minute incubation, luminescence was measured using a microplate luminometer (BioTek® Synergy™ H1 Microplate Reader). The resulting relative light units (RLU values) were converted to % cytotoxicity using the growth medium only control wells mentioned above:
(§3) Data was fit into 4-parameter logistic to curves using non-linear regression methods available with GraphPad Prism software (GraphPad Software, Inc.).

In data set [5] the test system is JEG-3 (Placental Choriocarcinoma). The experiment in a line: Cell proliferation assay, JEG-3. The class given is cell-based. The following applies: 5 nights. The method, then: as §1, §2, §3
The test system of data set [6] is OVKATE (Ovarian Adenocarcinoma). The experiment in a line: Cell proliferation assay, OVKATE. The following applies: 5 nights. The class given is cell-based. The procedure: as §1, §2, §3
Data set [7] is described as follows: Stability in female mouse plasma. Format: in vitro ADME. The following applies: 1 μM, 37° C., 24 h. The procedure: The stability of exemplary compounds of general Formula I in mouse plasma was evaluated as follows.
Compounds were incubated at 1 μM in duplicate in female mouse plasma, 250 μL final volume, at 37° C. for 24 h. Aliquots were sampled at 0, 15, 30, 60, 120, 240, 480 and 1440 min. Proteins were precipitated by addition of 5 volumes of cold methanol. After centrifugation 10000×g for 10 min, the residual concentration of compound in the supernatant was measured using an appropriate LC-MS/MS method. The measured concentrations were expressed as a function of time through a one-phase decay exponential regression calculated using GraphPad Prism software (GraphPad Software, Inc.) to generate the plasma half-life for each compound.

The conditions of data set [8]: amide bond, 32-membered ring.

Like-named read-outs stand apart in the source and are kept apart here. Where a SMILES comes first, the peptide text is derived from it. Bridges are numbered along the chain shown (N, C = ends). Roman numbers before positions name the chains, in order. [ ]: non-standard residue; d: D form. The star is where a group is joined. Quinaldoyl(3-OH) = O=C(c1nc2ccccc2cc1O)*; NMeV = CN[C@H](C(=O)O)C(C)C; Pip = O=C(O)[C@@H]1CCCCN1; dDap = NC[C@@H](N)C(=O)O; Sar = CNCC(=O)O

For orientation: EC50 means the concentration that produces a half-maximal response.

Regarding `CC(C)[C@H]1C(=O)NC[C@@H](NC(=O)c2nc3ccccc3cc2O)C(=O)N2CCCC[C@H]2C(=O)NCC(=O)NCC(=O)N(C)[C@@H](C(C)C)C(=O)NC[C@@H](NC(=O)c2nc3ccccc3cc2O)C(=O)N2CCCC[C@H]2C(=O)NCC(=O)NCC(=O)N1C` [Compound 137, N,N′-((7R,11S,19aS,26R,30S,38aS)-11,30-diisopropyl-12,31-dimethyl-6,10,13,16,19,25,29,32,35,38-decaoxohexatriacontahydro-2H,6H-dipyrido[1,2-a:1′,2′-q][1,4,7,10,13,17,20,23,26,29]decaazacyclodotriacontine-7,26-diyl)bis(3-hydroxyquinoline-2-carboxamide)] (I: {Quinaldoyl(3-OH)}-[dDap][Pip]GG[NMeV] / II: {Quinaldoyl(3-OH)}-[dDap][Pip]GG[NMeV]; amide I:1-II:C, I:C-II:1), in data set [1], the “activity in cell assays (in words)” value is “inactive in cell assays” and the “pIC50 (average)” value is recorded as “Inactive”. Also, in data set [2], the “DNA binding via SPR (in words)” value was “did not demonstrate measurable DNA binding” and the “KD (mM)” value was “none”. The “HPLC” value in data set [3] came to 15.1 min.

Turning to `CC(C)[C@@H]1NC(=O)CN(C)C(=O)CNC(=O)[C@@H]2CCCCN2C(=O)[C@H](NC(=O)c2nc3ccccc3cc2O)CNC(=O)[C@H](C(C)C)NC(=O)CN(C)C(=O)CNC(=O)[C@@H]2CCCCN2C(=O)[C@H](NC(=O)c2nc3ccccc3cc2O)CNC1=O` [Compound 152] (I: {Quinaldoyl(3-OH)}-[dDap][Pip]G[Sar]V / II: {Quinaldoyl(3-OH)}-[dDap][Pip]G[Sar]V; amide I:1-II:C, I:C-II:1), the “pIC50 (average)” value in data set [1] came out at 6.9. In data set [2], the “DNA binding via SPR (in words)” value was “near complete loss of binding”. The “HPLC” value in data set [3] is 14.6 min.

In the case of `CC(C)[C@H]1C(=O)NCC(=O)N(C)CC(=O)N2CCCC[C@H]2C(=O)NC[C@@H](NC(=O)c2nc3ccccc3cc2O)C(=O)N(C)[C@@H](C(C)C)C(=O)NCC(=O)N(C)CC(=O)N2CCCC[C@H]2C(=O)NC[C@@H](NC(=O)c2nc3ccccc3cc2O)C(=O)N1C` [Compound 414, N,N′-((13S,16R,19aS,32S,35R,38aS)-13,32-diisopropyl-8,14,27,33-tetramethyl-6,9,12,15,19,25,28,31,34,38-decaoxohexatriacontahydro-2H,6H-dipyrido[2,1-c: 2′,1′-s][1,4,7,10,13,17,20,23,26,29]decaazacyclodotriacontine-16,35-diyl)bis(3-hydroxyquinoline-2-carboxamide)], in data set [1], the “activity in cell assays (in words)” value was “inactive” and the “pIC50 (average)” value is “inactive”. In data set [2], the “DNA binding via SPR (in words)” value is listed as “non-binding” and the “KD (mM)” value was “none”. The “HPLC” value in data set [3] amounted to 16.8 min.

As to `CCCN1CC(=O)N(C)[C@@H](C(C)C)C(=O)NC[C@@H](NC(=O)c2nc3ccccc3cc2O)C(=O)N2CCCC[C@H]2C(=O)NCC(=O)N(CCC)CC(=O)N(C)[C@@H](C(C)C)C(=O)NC[C@@H](NC(=O)c2nc3ccccc3cc2O)C(=O)N2CCCC[C@H]2C(=O)NCC1=O` [Compound 419, N,N′-((7R,11S,19aS,26R,30S,38aS)-11,30-diisopropyl-12,31-dimethyl-6,10,13,16,19,25,29,32,35,38-decaoxo-15,34-dipropylhexatriacontahydro-2H,6H-dipyrido[1,2-a:1′,2′-q][1,4,7,10,13,17,20,23,26,29]decaazacyclodotriacontine-7,26-diyl)bis(3-hydroxyquinoline-2-carboxamide)], the EC50 in data set [4] came out at 11.5 nM; in data set [5] it was 6.9 nM; in data set [6], 24.1 nM.

As for `CC(C)[C@H]1C(=O)NC[C@@H](NC(=O)c2nc3ccccc3cc2O)C(=O)N2CCCC[C@H]2C(=O)NCC(=O)N(C(C)C)CC(=O)N(C)[C@@H](C(C)C)C(=O)NC[C@@H](NC(=O)c2nc3ccccc3cc2O)C(=O)N2CCCC[C@H]2C(=O)NCC(=O)N(C(C)C)CC(=O)N1C` [Compound 424, N,N′-((7R,11S,19aS,26R,30S,38aS)-11,15,30,34-tetraisopropyl-12,31-dimethyl-6,10,13,16,19,25,29,32,35,38-decaoxohexatriacontahydro-2H,6H-dipyrido[1,2-a:1′,2′-q][1,4,7,10,13,17,20,23,26,29]decaazacyclodotriacontine-7,26-diyl)bis(3-hydroxyquinoline-2-carboxamide)], the EC50 in data set [4] turned out to be 54 nM; in data set [5] it was 55.7 nM.

Regarding `C[C@H]1NC(=O)[C@@H]2CCCCN2C(=O)CN(C)C(=O)CNC(=O)[C@@H]2CCCCN2C(=O)[C@H](NC(=O)c2nc3ccccc3cc2O)[C@@H](C)NC(=O)[C@@H]2CCCCN2C(=O)CN(C)C(=O)CNC(=O)[C@@H]2CCCCN2C(=O)[C@@H]1NC(=O)c1nc2ccccc2cc1O` [Quinaldopeptin, quinaldopeptin, reference compound], in data set [1], the “pIC50 (average)” value was found to be 8.0. Also, in data set [3], the “HPLC” value is recorded as 16.7 min. The EC50 in data set [4] is 6.5 nM; in data set [5], 9.8 nM; in data set [6] it was 14.8 nM. Further, the “plasma stability (in words)” value in data set [7] is “stability over the course of the experiment”.

In the case of “(7R,11S,19aS,26R,38aS)-26-(((benzyloxy)carbonyl)amino)-11-isopropyl-12,15,30,30,31,34-hexamethyl-6,10,13,16,19,25,29,32,35,38-decaoxohexatriacontahydro-2H,6H-dipyrido[1,2-a:1′,2′-q][1,4,7,10,13,17,20,23,26,29]decaazacyclodotriacontin-7-aminium trifluoroacetate”, the ring closure, yield after HPLC in data set [8] (2 steps) was 45%.

Take “Benzyl N-[(3R,7S,20S,27R,31S,44S)-27-[(tert-butoxycarbonyl)amino]-15,39-dimethyl-2,6,13,16,19,26,30,37,40,43-decaoxo-1,5,12,15,18,25,29,36,39,42-decaazapentacyclo[42.4.0.0^7,12.0^20,25.0^31,36]octatetracontan-3-yl]carbamate”: in data set [8], the ring closure, yield after HPLC was 40%.

“Benzyl tert-butyl ((7R,11S,19aS,26R,30S,38aS)-11,30-diisopropyl-15,34-dimethyl-6,10,13,16,19,25,29,32,35,38-decaoxohexatriacontahydro-2H,6H-dipyrido[1,2-a:1′,2′-q][1,4,7,10,13,17,20,23,26,29]decaazacyclodotriacontine-7,26-diyl)dicarbamate” gave a ring closure, yield after HPLC in data set [8] of 20%.

In turn, “Tert-butyl (4-nitrobenzyl) ((7R,10aS,22aS,29R,32aS,44aS)-18,40-dimethyl-6,16,19,22,28,32,38,41,44-nonaoxodotetracontahydro-6H-tetrapyrido[2,1-b1: 2′,1′-c: 2″,1″-1:2′″,1′″-s][1]oxa[4,7,10,13,17,20,23,26,29]nonaazacyclodotriacontine-7,29-diyl)dicarbamate” yielded a ring closure, yield after HPLC in data set [8] of 23%.
